Results as given in EP0117578A2, “Azole-substituted alcohol derivatives” (SHIONOGI & CO., LTD., priority 1983, dated 1984).
Converted amounts (≈) assume the structure as drawn.

Key:
Trichophyton asteroides = test: in vitro antifungal test, minimum inhibitory concentration (MIC); type: cell-based; details: Sabouraud's dextrose broth
Description: Sabouraud's dextrose broth was used as a culture medium.

Candida albicans KE-2 [1] = test: Therapeutic effect against experimental candidiasis in mice; type: in vivo; details: female Jcl-ICR mice infected intravenously; 50 mg/kg orally twice a day for 5 days; survival at the 15th day
Description: [Therapeutic effect against experimental candidiasis in mice] Candida albicans KE-2 was cultivated in a Sabouraud's dextrose agar at 28°C for 48 hours, and the resulting culture was suspended in the Sabouraud's dextrose broth. The cells (5 x 105) were administered intravenously at the tail of female Jcl-ICR mice (4 weeks age, body weight 18 - 20 g). The test compound suspended in 2 % gum-arabic was orally administered at a dose of 50 mg/kg twice a day for 5 days: on the first day, the test compound was administered twice i.e. immediately after the infection and 2 hours later; on the second day or later, 24 hours after the administration of the previous day respectively. An infected group to which no test compound was administered was regarded as a control group. Eight mice were employed per group in the control group and the test groups to which the test compound was administered. Therapeutic effect was evaluated on the survival rate at the 15th day since the day of infection; the result is shown below.

Candida albicans KE-2 [2] = test: Inhibition test against the formation of the pseudohyphae of Candida albicans; type: cell-based; details: KE2; Candida albicans KE-2, 1 x 10^6 cells/ml; Eagle's MEM with 20 % bovine serum; 37°C, 18 hours; two-fold dilution; read-out: Inhibitory Concentration against Pseudohyphae Formation
Description: [Inhibition test against the formation of the pseudohyphae of Candida albicans] To an Eagle's MEM medium (Nissan 2; Nissui Pharmaceutical Co., Ltd.) was added 20 % bovine serum, onto which yeast cells of Candida albicans KE-2 were inoculated so that the terminal inoculum size would amount to 1 x 10^6 cells/ml. Then, a test compound was added to the medium by a two-fold dilution method, and cultivation was performed at 37°C for 18 hours. After termination of the cultivation, the cells of serial dilution on each medium were smeared and fixed on an object glass, then stained by the Giemsa's staining method, and the occurrence of the pseudohyphae was observed by microscopy. Minimum concentration for inhibiting the formation of the pseudohyphae was regarded as Inhibitory Concentration against Pseudohyphae Formation.

[3] = system: dumping-off pathogen, Rhizoctonia solani; test: Control of dumping-off in cucumber seedlings; type: in vivo; details: cucumber seeds, 14 days after sowing; for Disease degree (%): 30 ml at 500 ppm applied to the soil, 30 ± 2 °C; for Control (%): 500 ppm applied to the soil, calculated from disease degree
Description: Twenty seeds of cucumber (cultivar: Matsukaze) were sown in 150 g of sterilized soil in 9 cm pot. The soil surface was covered with 15 g of inoculum which contained a dumping-off pathogen, Rhizoctonia solani precultured in a mixture of wheat bran and sterilized soil. Then 30 ml of preparation with a test compound at a concentration of 500 ppm was applied to the soil and the pot was kept at 30 ± 2 °C in a humid chamber.

[4] = system: cucumber downy mildew (Pseudoperonospora cubensis); test: Control of cucumber downy mildew; type: in vivo; details: cucumber leaf sprayed at 125 ppm, 10 days
Description: The first leaf of young cucumber plant (cultivar : Matsukaze) grown in pot was sprayed with 3 ml of preparation containing a test compound at a concentration of 125 ppm. Five small droplets of suspension of sporangia of cucumber downy mildew (Pseudoperonospora cubensis) were applied to the leaf surface and the pot was kept at 22 ± 2°C under humid condition for 10 days. Then disease degree of downy mildew symptom developed was determined by the following method : [formula] • where, a : Number of inoculations showing typical disease symptom • b : Number of inoculations at which chlorosis was developed • c : Number of inoculations at which chlorosis was slightly developed • d : Number of inoculations at which no disease symptoms were developed Disease degree in Disease degree in [formula]

[5] = system: cucurbit powdery mildew (Sphaerotheca fuliginea); test: Control of powdery mildew in cucumber; type: in vivo; set-up: key: O: Disease sign was detected for nearly 100 % area in the inoculated leaf surface; 3: Disease sign was detected for about 50 % area; 5: Disease sign was detected for about 30 % area; 7: Disease sign was detected for about 20 % area; 9: Disease sign was slightly detected; 10: No disease sign was detected; details: degree of mildew infection 10 days after inoculation; for Soil application (10 ppm) Prevention: 10 ml at 10 ppm applied to the soil before inoculation; for Foliar spray (125 ppm) Supprension: sprayed at 125 ppm 2 days after inoculation; for Foliar spray (125 ppm) Prevention: sprayed at 125 ppm before inoculation
Description: Three ml of preparation containing a test compound at a concentration of 125 ppm was sprayed foliarly to the first leaf of young cucumber plant (cultivar: Matsukaze) which was grown in 9 cm pot in a glasshouse. Similar preparation in 10 ml with the test compound at a concentration of 10 ppm was applied directly to the soil in another pot with cucumber. These plants were inoculated subsequently with conidia suspension of cucurbit powdery mildew (Sphaerotheca fuliginea) and kept in a glasshouse at the temperature of 25 ± 2 °C. Yet in another experiment cucumber in pot was inoculated first with conidia of Sphaerotheca fuliginea and after 2 days the test compound was sprayed foliarly as above to examine its suppressive ability against development of the disease. For all these cucumber plants were observed 10 days after each inoculation and degrees of mildew infection were given as follows: • O : Disease sign was detected for nearly 100 % area in the inoculated leaf surface • 3 : Disease sign was detected for about 50 % area • 5 : Disease sign was detected for about 30 % area • 7 : Disease sign was detected for about 20 % area • 9 : Disease sign was slightly detected • 10: No disease sign was detected

[6] = system: sheath blight fungus (Rhizoctonia solani); test: Control of sheath blight in rice; type: in vivo; details: rice sprayed foliarly at 500 ppm, 5 days
Description: Rice (cultivar: Aichi-asahi) was grown in pots in a glasshouse for about 3 months and the plant in each pot was sprayed foliarly with 5 ml of preparation containing a test compound at a concentration of 500 ppm. Then the rice was inoculated at the stem near the soil with sheath blight fungus (Rhizoctonia solani) which was previously cultured in rice husks. The inoculated plant was placed in a humid (r.h. 97 %) chamber at 28°C for 5 days.

## CCCCC(=O)C(O)(Cn1cncn1)c1ccc(Cl)cc1Cl (centres unmarked) [compound 23]
Trichophyton asteroides
  MIC: 0.1 µg/mL (≈ 0.292 µM)

## O=C(c1ccc(F)cc1)C(O)(Cn1cncn1)c1ccccc1Cl (centres unmarked) [compound 19]
Candida albicans KE-2 [1]
  Survival Rate: 100%

## OC(c1ccc(Cl)cc1Cl)C(O)(Cn1cncn1)c1ccc(Cl)cc1Cl (centres unmarked) [compound 63, 1,2-bis(2,4-dichlorophenyl)-3-(1H-1,2,4-triazol-1-yl)-propylene glyco]
Trichophyton asteroides
  MIC: 0.1 µg/mL (≈ 0.231 µM)
Candida albicans KE-2 [1]
  Survival Rate: 75%
Candida albicans KE-2 [2]
  minimal effective concentration: 0.08 µg/mL

## O=C(c1ccccc1F)C(O)(Cn1cncn1)c1ccc(Cl)cc1Cl (centres unmarked) [compound 46]
[3]
  Disease degree (%): 0%
  Control (%): 100%
Candida albicans KE-2 [1]
  Survival Rate: 87.5%
[4]; 22 ± 2°C, humid
  Disease degree (%): 20%
[4]; calculated from disease degree
  Control (%): 80%
[5]
  Soil application (10 ppm) Prevention: 5 (Disease sign was detected for about 30 % area)
  Foliar spray (125 ppm) Supprension: 10
  Foliar spray (125 ppm) Prevention: 10

## OC(c1ccccc1Cl)C(O)(Cn1cncn1)c1ccccc1Cl (centres unmarked) [compound 69]
Trichophyton asteroides
  MIC: 0.1 µg/mL (≈ 0.275 µM)
Candida albicans KE-2 [2]
  minimal effective concentration: 0.08 µg/mL

## COc1ccc(C(=O)C(O)(Cn2cncn2)c2ccc(OC)cc2)cc1 (centres unmarked) [compound 7]
Trichophyton asteroides
  MIC: 12.5 µg/mL (≈ 35.4 µM)

## OC(c1ccc(F)cc1)C(O)(Cn1cncn1)c1ccc(Cl)cc1Cl (centres unmarked) [compound 67]
Trichophyton asteroides
  MIC: 0.1 µg/mL (≈ 0.262 µM)
Candida albicans KE-2 [1]
  Survival Rate: 100%
Candida albicans KE-2 [2]
  minimal effective concentration: 0.08 µg/mL

## O=C(c1cccc(Cl)c1)C(O)(Cn1cncn1)c1cccc(Cl)c1 (centres unmarked) [compound 11]
Trichophyton asteroides
  MIC: 3.13 µg/mL (≈ 8.64 µM)

## CCC(C)C(=O)C(O)(Cn1cncn1)c1ccc(Cl)cc1Cl (centres unmarked) [compound 28]
Candida albicans KE-2 [2]
  minimal effective concentration: 0.02 µg/mL

## CCCC(=O)C(O)(Cn1cncn1)c1ccccc1Cl (centres unmarked) [compound 32]
Trichophyton asteroides
  MIC: 0.8 µg/mL (≈ 2.72 µM)
Candida albicans KE-2 [2]
  minimal effective concentration: 0.04 µg/mL
[5]
  Soil application (10 ppm) Prevention: 10
  Foliar spray (125 ppm) Supprension: 10
  Foliar spray (125 ppm) Prevention: 10

## CCC(C)C(=O)C(O)(Cn1cncn1)c1ccc(Cl)cc1 (centres unmarked) [compound 34]
Trichophyton asteroides
  MIC: 0.1 µg/mL (≈ 0.325 µM)

## O=C(c1ccc(Cl)cc1Cl)C(O)(Cn1ccnc1)c1ccc(Cl)cc1Cl (centres unmarked) [Compound No. 1, 2',4'-dichloro-2-(2,4-dichlorophenyl)-2-hydroxy-3-(1H-imidazol-1-yl)propiophenone]
Trichophyton asteroides
  MIC: 0.1 µg/mL (≈ 0.232 µM)
[5]
  Foliar spray (125 ppm) Supprension: 10
  Foliar spray (125 ppm) Prevention: 10

## O=C(c1ccc(F)cc1)C(O)(Cn1cncn1)c1ccc(Cl)cc1Cl (centres unmarked) [compound 8]
[3]
  Disease degree (%): 5%
  Control (%): 95%
Candida albicans KE-2 [2]
  minimal effective concentration: 1.25 µg/mL

## CCCC(O)C(O)(Cn1cncn1)c1ccc(Cl)cc1 (centres unmarked) [compound 80]
Trichophyton asteroides
  MIC: 1.6 µg/mL (≈ 5.41 µM)

## CCCC(=O)C(O)(Cn1cncn1)c1ccc(Cl)cc1Cl (centres unmarked) [compound 25]
Trichophyton asteroides
  MIC: 0.1 µg/mL (≈ 0.305 µM)
[6]; 28°C, r.h. 97 %
  Growth of mycelia (mm): 20 mm
[6]; calculated from growth of mycelia
  Suppression (%): 90%
Candida albicans KE-2 [2]
  minimal effective concentration: 0.04 µg/mL
[5]
  Soil application (10 ppm) Prevention: 10
  Foliar spray (125 ppm) Supprension: 10
  Foliar spray (125 ppm) Prevention: 10

## O=C(c1ccc(Cl)cc1Cl)C(O)(Cn1cncn1)c1ccc(Cl)cc1Cl (centres unmarked) [compound 6]
Trichophyton asteroides
  MIC: 0.1 µg/mL (≈ 0.232 µM)
Candida albicans KE-2 [2]
  minimal effective concentration: 0.16 µg/mL

## Cc1ccc(C(=O)C(O)(Cn2cncn2)c2ccc(C)cc2)cc1 (centres unmarked) [compound 9]
Trichophyton asteroides
  MIC: 1.56 µg/mL (≈ 4.85 µM)

## OC(c1ccc(Cl)cc1Cl)C(O)(Cn1cncn1)c1ccc(F)cc1 (centres unmarked) [compound 78]
Candida albicans KE-2 [2]
  minimal effective concentration: 0.31 µg/mL

## OC(c1ccc(F)cc1)C(O)(Cn1cncn1)c1ccc(F)cc1 (centres unmarked) [compound 71]
Trichophyton asteroides
  MIC: 1.56 µg/mL (≈ 4.71 µM)
[5]
  Soil application (10 ppm) Prevention: 10
  Foliar spray (125 ppm) Supprension: 10
  Foliar spray (125 ppm) Prevention: 10

## O=C(c1ccccc1Cl)C(O)(Cn1cncn1)c1ccccc1Cl (centres unmarked) [compound 10]
[3]
  Disease degree (%): 8%
  Control (%): 92%
Trichophyton asteroides
  MIC: 0.1 µg/mL (≈ 0.276 µM)
Candida albicans KE-2 [2]
  minimal effective concentration: 0.08 µg/mL
